Read-outs that look alike come from different tables or passages of the source.
How the values were obtained:
[1] = cited from earlier work
healthy subjects = assay: Safety assessments; type: in vivo, human; settings: for Fatigue / Headache / Insomnia / TEAEs considered treatment related / Total TEAEs reported / Subjects reporting ≥1 AE: during treatment period; for Subjects reporting ≥1 AE: sertraline n = 52, moxifloxacin n = 50
[2] = ref Pfizer Inc, data on file, cited from earlier work
[3] = test system: cardiac repolarization in healthy subjects; assay: PK/PD exposure‐response analysis of QTcF; settings: for Estimated slope of the regression for ∆QTcF versus plasma concentration: separate PK/PD models for sertraline and N‐desmethylsertraline concentration
[4] = type: in vivo, human; settings: for Cmin, geometric mean (%CV): 0‐24 h after last dose; for AUC(0-t): AUClast; for MR (metabolite‐to‐parent ratio for AUC24), geometric mean (%CV): corrected for molecular weight
[5] = cited from earlier work; remark: listed apart in the source
CYP2D6 = settings: cited from earlier work
CYP1A2 = settings: cited from earlier work
Kv1.5 = settings: Chinese hamster ovary cells; cited from earlier work
CYP2C19 = settings: cited from earlier work
QTc interval = settings: cited from earlier work
[6] = test system: cardiac repolarization in healthy subjects
CYP2C9 = settings: cited from earlier work
[7] = test system: extracellular 5‐HT levels; settings: compared with sertraline; cited from earlier work
[8] = Day 1, sertraline 50 mg single dose, plasma, healthy subjects
[9] = Day 14, sertraline 400 mg/day multiple dose
[10] = human, plasma, 400 mg/day, arithmetic mean ± SD, Day 14, sertraline 400 mg/day multiple dose
[11] = patients admitted for sertraline overdose (>200 mg)
[12] = 1 h after dosing on day 14, sertraline 400 mg/day
[13] = 2 h after dosing on day 14, sertraline 400 mg/day
[14] = 3 h after dosing on day 14, sertraline 400 mg/day
[15] = 4 h after dosing on day 14, sertraline 400 mg/day
[16] = 5 h after dosing on day 14, sertraline 400 mg/day
[17] = 6 h after dosing on day 14, sertraline 400 mg/day
[18] = 8 h after dosing on day 14, sertraline 400 mg/day
[19] = 12 h after dosing on day 14, sertraline 400 mg/day
[20] = 24 h after dosing on day 14, sertraline 400 mg/day
[21] = categorical analysis of maximum postdose QTcF
[22] = Day 1, sertraline 50 mg single dose

SMILES: COc1c(N2C[C@@H]3CCCN[C@@H]3C2)c(F)cc2c(=O)c(C(=O)O)cn(C3CC3)c12 [moxifloxacin]
- Population tmax [1]: 3 h
- Fatigue (healthy subjects): 7 subjects
- Headache (healthy subjects): 11 subjects
- Insomnia (healthy subjects): 11 subjects
- TEAEs considered treatment related (healthy subjects): 92
- Total TEAEs reported (healthy subjects): 105
- Subjects reporting ≥1 AE (healthy subjects): 42 subjects

SMILES: CN[C@H]1CC[C@@H](c2ccc(Cl)c(Cl)c2)c2ccccc21 [sertraline]
- Cmax at 400 mg/day relative to Cmax at 200 mg/day ([2]; day 14): approximately 3 times
- Mean Cmax ([2]; sertraline 400 mg/day, day 14, healthy subjects): 282 ng/mL
- Increase in exposure with hepatic impairment ([1]; hepatic impairment): 1.7 fold
- Predicted mean ∆∆QTcF ([3]; at mean supratherapeutic Cmax of 234 ng/mL on day 14): 8.93 milliseconds
- Predicted mean ∆ΔQTcF (change from baseline QTcF adjusted for placebo) ([3]; at mean therapeutic maximum plasma sertraline concentration of 86 ng/mL (200 mg/day)): 3.57 milliseconds
- Predicted mean ∆∆QTcF ([3]; at peak plasma sertraline concentration 223.5 ng/mL): 8.55 milliseconds
- Estimated slope of the regression for ∆QTcF versus plasma concentration [3]: 0.036 ms/ng/mL
- Cmax, geometric mean (%CV) [4, 8]: 11.39 (37) ng/mL
- Cmin, arithmetic mean ± SD [4, 9]: 146.1 ± 57.093 ng/mL
- Rac (observed accumulation ratio of AUC), arithmetic mean ± SD [4, 9]: 3.71 ± 0.82
- Rac (observed accumulation ratio of AUC), geometric mean (%CV) [4, 9]: 3.62 (22.79)
- Cmin, geometric mean (%CV) [4, 9]: 135.3 (43) ng/mL
- Tmax ([4]; human, plasma, 50 mg): 5.06 h
- AUC ([4]; human, plasma, 50 mg, AUC24, arithmetic mean ± SD, Day 1, sertraline 50 mg single dose): 162 ± 50.3 ng·h/mL
- AUC ([4]; human, plasma, 50 mg, AUC24, geometric mean (%CV), Day 1, sertraline 50 mg single dose): 154 ng·h/mL
- Cmax ([4]; human, plasma, 50 mg, arithmetic mean ± SD, Day 1, sertraline 50 mg single dose): 12.1 ± 4.34 ng/mL
- Cmax ([4]; human, plasma, 50 mg, geometric mean (%CV), Day 1, sertraline 50 mg single dose, plasma, healthy subjects): 11.4 ng/mL
- concentration at 4 h ([4]; human, plasma, 400 mg/day): 213 ng/mL
- AUC ([4]; human, plasma, 400 mg/day, AUC24, arithmetic mean ± SD, Day 14, sertraline 400 mg/day multiple dose): 4650 ± 1580 ng·h/mL
- AUC ([4]; human, plasma, 400 mg/day, AUC24, geometric mean (%CV), Day 14, sertraline 400 mg/day multiple dose): 4390 ng·h/mL
- AUC(0-t) [4, 10]: 9190 ± 3720 ng·h/mL
- AUC(0-t) ([4]; human, plasma, 400 mg/day, geometric mean (%CV), Day 14, sertraline 400 mg/day multiple dose): 8490 ng·h/mL
- Cmax [4, 10]: 246 ± 80.6 ng/mL
- Cmax ([4]; human, plasma, 400 mg/day, geometric mean (%CV), Day 14, sertraline 400 mg/day (200 mg BID, only morning dose on day 14), multiple dose, plasma): 234 ng/mL
- Maximum tolerated dose [5]: 400 mg/day
- CYP2D6 inhibitor class (CYP2D6): weak to moderate inhibitor
- CYP1A2 inhibitor class (CYP1A2): weak inhibitor
- Effect on Kv1.5 (Kv1.5): voltage‐dependent inhibition
- CYP2C19 inhibitor class (CYP2C19): weak inhibitor
- Incidence of maximum QTcB interval prolongation (males >450 ms; females >460 ms) (QTc interval; ECG database, dosing and concomitant medications unknown): 7.9%
- Increase in QT/QTc interval (QTc interval; clinical trials, sertraline 50‐200 mg/day, major depression): No statistically significant increase
- Mean increase in QTc interval compared with placebo (QTc interval; meta‐analysis of study‐level trial data, sertraline 50‐200 mg/day): 3.0 millisecond
- Incidence of QTc interval >500 ms (QTc interval; [11]): 6%
- Incidence of QTc interval greater than 440 ms (QTc interval; [11]): 40%
- Mean QTcF increase (QTc interval; prospective, cross‐sectional population‐based study (n = 42)): 1.7 milliseconds
- QTcF, Least Squares Difference (Sertraline‐Placebo) [6, 12]: 6.957 ms
- QTcF, Least Squares Mean [6, 12]: 414.299 ms
- QTcF, Least Squares Difference (Sertraline‐Placebo) [6, 13]: 7.851 ms
- QTcF, Least Squares Mean [6, 13]: 415.625 ms
- QTcF, Least Squares Difference (Sertraline‐Placebo) [6, 14]: 7.824 ms
- QTcF, Least Squares Mean [6, 14]: 416.465 ms
- QTcF, Least Squares Difference (Sertraline‐Placebo) [6, 15]: 9.651 ms
- QTcF, Least Squares Mean [6, 15]: 418.252 ms
- QTcF, Least Squares Difference (Sertraline‐Placebo) [6, 16]: 7.377 ms
- QTcF, Least Squares Mean [6, 16]: 411.285 ms
- QTcF, Least Squares Difference (Sertraline‐Placebo) [6, 17]: 6.511 ms
- QTcF, Least Squares Mean [6, 17]: 408.985 ms
- QTcF, Least Squares Difference (Sertraline‐Placebo) [6, 18]: 5.597 ms
- QTcF, Least Squares Mean [6, 18]: 408.732 ms
- QTcF, Least Squares Difference (Sertraline‐Placebo) [6, 19]: 5.677 ms
- QTcF, Least Squares Mean [6, 19]: 411.019 ms
- QTcF, Least Squares Difference (Sertraline‐Placebo) [6, 20]: 7.346 ms
- QTcF, Least Squares Mean [6, 20]: 414.294 ms
- Time of longest placebo‐adjusted QTc interval ([6]; after dosing on day 14, sertraline 400 mg/day): 4 h
- Subjects with absolute QTcF interval of ≥480 milliseconds [6, 21]: no participant
- Subjects with maximum increase from baseline in QTcF of ≥60 milliseconds [6, 21]: no participant
- Predose (time 0) QTcF, mean (standard deviation) ([6]; day 14 of sertraline treatment period): 414.9 (14.89) milliseconds
- Fatigue (healthy subjects): 17 subjects
- Headache (healthy subjects): 18 subjects
- Insomnia (healthy subjects): 22 subjects
- TEAEs considered treatment related (healthy subjects): 238
- Total TEAEs reported (healthy subjects): 251
- Subjects reporting ≥1 AE (healthy subjects): 45 subjects
- Severe AE / SAE (psychiatric decompensation) (healthy subjects; subject withdrawn, resolved the same day): single severe AE
- Discontinued study treatment due to an AE (asthma) (healthy subjects; while receiving sertraline treatment): One additional subject
- CYP2C9 inhibitor class (CYP2C9): weak inhibitor

SMILES: N[C@H]1CC[C@@H](c2ccc(Cl)c(Cl)c2)c2ccccc21 [N‐desmethylsertraline]
- Estimated slope of the regression for ∆QTcF versus plasma concentration [3]: 0.036 ms/ng/mL
- AUC24, arithmetic mean ± SD [4, 22]: 79.03 ± 19.199 ng·h/mL
- AUC24, geometric mean (%CV) [4, 22]: 76.87 (24) ng • h/mL
- Cmax, arithmetic mean ± SD [4, 22]: 4.428 ± 1.3189 ng/mL
- MR (metabolite‐to‐parent ratio for AUC24), arithmetic mean ± SD [4, 22]: 0.5493 ± 0.1743
- tmax, median (range) [4, 22]: 12.0 (5.00‐23.9) h
- Cmax, geometric mean (%CV) [4, 8]: 4.269 (27) ng/mL
- MR (metabolite‐to‐parent ratio for AUC24), geometric mean (%CV) [4, 22]: 0.5222 (34)
- Cmax, geometric mean (%CV) ([4]; Day 14, sertraline 400 mg/day (200 mg BID, only morning dose on day 14), multiple dose, plasma): 249.6 (23) ng/mL
- AUC24, arithmetic mean ± SD [4, 9]: 5342 ± 1109.5 ng·h/mL
- AUC24, geometric mean (%CV) [4, 9]: 5227 (22) ng • h/mL
- AUClast, arithmetic mean ± SD [4, 9]: 13500 ± 3225.2 ng·h/mL
- AUClast, geometric mean (%CV) [4, 9]: 13110 (25) ng • h/mL
- Cmin, arithmetic mean ± SD [4, 9]: 188.4 ± 39.567 ng/mL
- MR (metabolite‐to‐parent ratio for AUC24), arithmetic mean ± SD [4, 9]: 1.283 ± 0.3075
- tmax, median (range) [4, 9]: 8.00 (1.07‐12.1) h
- Cmin, geometric mean (%CV) [4, 9]: 184.1 (23) ng/mL
- MR (metabolite‐to‐parent ratio for AUC24), geometric mean (%CV) [4, 9]: 1.248 (24)
- Effect on extracellular 5‐HT levels [7]: lack of effect
